Test results: the supplement of paper PMC11451515

Tested on: P12-Ichikawa
Assay: cell viability relative to DMSO control; higher = less cytotoxic
Conditions: 48 h
Procedure, shortened: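 Cells were incubated for 48 h at 37°C before CellTiter-Glo One luminescence was read. The cells were NOMO1 or SEM (500 cells/well) or P12-Ichikawa (1000 cells/well) leukemia cells, adapted for at least four passages in each medium and seeded in 1536-well plates (5 μl). Dosing used library compounds in DMSO applied by pin over 11 threefold points, 47 μM to 0.79 nM. Viability is the per-plate percentage of DMSO wells, with cell-free wells as background.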

[1] = HPLM + 10% dialyzed FBS, 0.000781 µM
[2] = HPLM + 10% dialyzed FBS, 0.00234 µM
[3] = HPLM + 10% dialyzed FBS, 0.00702 µM
[4] = HPLM + 10% dialyzed FBS, 0.0211 µM
[5] = HPLM + 10% dialyzed FBS, 0.0632 µM
[6] = HPLM + 10% dialyzed FBS, 0.19 µM
[7] = HPLM + 10% dialyzed FBS, 0.569 µM
[8] = HPLM + 10% dialyzed FBS, 1.71 µM
[9] = HPLM + 10% dialyzed FBS, 5.12 µM
[10] = HPLM + 10% dialyzed FBS, 15.4 µM
[11] = HPLM + 10% dialyzed FBS, 46.1 µM
[12] = RPMI 5 mM glucose + 10% FBS, 0.000781 µM
[13] = RPMI 5 mM glucose + 10% FBS, 0.00234 µM
[14] = RPMI 5 mM glucose + 10% FBS, 0.00702 µM
[15] = RPMI 5 mM glucose + 10% FBS, 0.0211 µM
[16] = RPMI 5 mM glucose + 10% FBS, 0.0632 µM
[17] = RPMI 5 mM glucose + 10% FBS, 0.19 µM
[18] = RPMI 5 mM glucose + 10% FBS, 0.569 µM
[19] = RPMI 5 mM glucose + 10% FBS, 1.71 µM
[20] = RPMI 5 mM glucose + 10% FBS, 5.12 µM
[21] = RPMI 5 mM glucose + 10% FBS, 15.4 µM
[22] = RPMI 5 mM glucose + 10% FBS, 46.1 µM
[23] = RPMI 5 mM glucose + 10% dialyzed FBS, 0.000781 µM
[24] = RPMI 5 mM glucose + 10% dialyzed FBS, 0.00234 µM
[25] = RPMI 5 mM glucose + 10% dialyzed FBS, 0.00702 µM
[26] = RPMI 5 mM glucose + 10% dialyzed FBS, 0.0211 µM
[27] = RPMI 5 mM glucose + 10% dialyzed FBS, 0.0632 µM
[28] = RPMI 5 mM glucose + 10% dialyzed FBS, 0.19 µM
[29] = RPMI 5 mM glucose + 10% dialyzed FBS, 0.569 µM
[30] = RPMI 5 mM glucose + 10% dialyzed FBS, 1.71 µM
[31] = RPMI 5 mM glucose + 10% dialyzed FBS, 5.12 µM
[32] = RPMI 5 mM glucose + 10% dialyzed FBS, 15.4 µM
[33] = RPMI 5 mM glucose + 10% dialyzed FBS, 46.1 µM

Structure (SMILES)	cell viability [1]	cell viability [2]	cell viability [3]	cell viability [4]	cell viability [5]	cell viability [6]	cell viability [7]	cell viability [8]	cell viability [9]	cell viability [10]	cell viability [11]	cell viability [12]	cell viability [13]	cell viability [14]	cell viability [15]	cell viability [16]	cell viability [17]	cell viability [18]	cell viability [19]	cell viability [20]	cell viability [21]	cell viability [22]	cell viability [23]	cell viability [24]	cell viability [25]	cell viability [26]	cell viability [27]	cell viability [28]	cell viability [29]	cell viability [30]	cell viability [31]	cell viability [32]	cell viability [33]
OC(CN1CCN(c2cccc(Cl)c2)CC1)C(c1ccccc1)c1ccccc1 (centres undefined)	109%	114%	119%	111%	120%	23.4%	17.3%	4.64%	4.77%	4.92%	5.05%	112%	117%	114%	115%	123%	126%	114%	7.71%	6.13%	5.76%	5.28%	102%	112%	111%	112%	118%	105%	84.9%	4.96%	5.14%	4.91%	4.74%
CC(C)OC1=CC=C2C(=C1)O\C=C(/C2=O)C3=CC=CC=C3	118%	126%	122%	128%	120%	119%	124%	117%	113%	118%	112%	123%	118%	127%	128%	131%	122%	121%	123%	115%	110%	113%	127%	121%	122%	116%	132%	110%	122%	115%	119%	92.4%	110%
CC(C)(O)c1cc2nc(-c3cnc(N)nc3)nc(N3CCOCC3)c2s1	120%	121%	122%	125%	118%	111%	108%	86.2%	74.1%	72.6%	70%	117%	127%	121%	112%	114%	103%	81.8%	66.5%	61%	49.4%	48.8%	–	–	–	–	–	–	–	–	–	–	–
c1ccc(-c2oc3ncnc(NC[C@@H]4CCCO4)c3c2-c2ccccc2)cc1	–	–	–	–	–	–	–	–	–	–	–	–	–	–	–	–	–	–	–	–	–	–	109%	118%	120%	113%	127%	124%	128%	115%	112%	103%	49.8%
NC(=O)Nc1cc(-c2cccc(F)c2)sc1C(=O)N[C@H]1CCCNC1	121%	124%	125%	122%	130%	112%	111%	74%	13.4%	7.94%	6.66%	–	–	–	–	–	–	–	–	–	–	–	–	–	–	–	–	–	–	–	–	–	–
O=c1[nH]c(=O)n(C2CCCO2)cc1F (centres undefined)	122%	124%	126%	125%	125%	124%	123%	123%	112%	110%	116%	–	–	–	–	–	–	–	–	–	–	–	88.6%	126%	120%	128%	130%	120%	122%	121%	119%	108%	115%
CC(C)Oc1ccc(C(=O)N[C@H](CNC(=O)CN(C)C)Cc2ccc(-c3cn4cccc([C@H](C)O)c4n3)cc2)cc1Cl	121%	115%	118%	115%	106%	101%	107%	78.1%	48.3%	45.8%	54.2%	117%	120%	118%	111%	115%	110%	103%	41.2%	25.3%	23%	26.6%	108%	117%	112%	110%	102%	101%	97.9%	63%	38.4%	31.6%	32.7%
COc1cc(/C=C/C(=O)O)ccc1O	89.1%	93%	91.4%	104%	95.7%	102%	107%	99%	103%	106%	107%	90.9%	88.5%	91.9%	84.4%	88.5%	92%	99.4%	88.4%	79.1%	97.1%	101%	88.1%	89.8%	88.7%	94.1%	91.5%	91.1%	96.3%	93.5%	91.1%	94.1%	99%
Cc1cccc(/C=N/Nc2cc(N3CCOCC3)nc(OCCc3ccccn3)n2)c1	95.8%	102%	92%	104%	103%	96.7%	89.5%	79%	67.6%	42%	28.4%	92%	97.5%	92.7%	99%	100%	96.8%	79.5%	64.3%	53.2%	45%	26.4%	90%	89.4%	88.5%	89.5%	89.8%	80.6%	71.5%	60.7%	52.3%	40%	24.9%
OCCn1cc(-c2cnc3nnn(Cc4ccc5ncccc5c4)c3n2)cn1	116%	116%	116%	110%	112%	110%	110%	107%	103%	98.9%	75.4%	108%	115%	114%	107%	106%	122%	115%	101%	100%	99.6%	86.5%	108%	122%	114%	118%	122%	115%	115%	109%	112%	96.9%	88.6%
Nc1ncnc2c1c(-c1cccc(OCc3ccccc3)c1)cn2C1CC(CN2CCCC2)C1 (centres undefined)	116%	128%	120%	130%	134%	128%	133%	124%	134%	121%	62.4%	–	–	–	–	–	–	–	–	–	–	–	–	–	–	–	–	–	–	–	–	–	–
CN(C)CCN1C(=O)c2cccc3cc(N)cc(c23)C1=O	104%	113%	108%	109%	111%	114%	115%	113%	104%	74.8%	7.88%	101%	113%	107%	113%	122%	116%	125%	102%	92.4%	54.7%	5.84%	105%	112%	108%	102%	118%	130%	120%	101%	89.2%	77.9%	11.8%
COC(=O)\C1=C\CCN(C)C1	111%	106%	105%	100%	103%	108%	96.9%	102%	93.7%	102%	105%	102%	115%	113%	104%	102%	108%	111%	115%	107%	98.4%	101%	101%	101%	97%	96.1%	96.3%	99.8%	102%	101%	93%	99%	93.3%
CC(C)Cc1ccc(C(C)C(=O)O)cc1 (centres undefined)	86.1%	86%	92.1%	90%	91.9%	98.2%	92.8%	95.4%	96.6%	92.4%	95.4%	90.4%	90.9%	84.5%	85%	87.5%	89.2%	81.8%	90.3%	82.1%	77.6%	81%	86.7%	91.6%	83.9%	83.2%	88.3%	89.8%	79.1%	81.7%	80.9%	84.5%	95.6%
C[C@H]1COC/2=C1/C(=O)C(=O)C3=C4CCCC(C)(C)C4=CC=C23	112%	118%	121%	129%	127%	134%	137%	124%	129%	118%	94%	–	–	–	–	–	–	–	–	–	–	–	–	–	–	–	–	–	–	–	–	–	–
C#CCN[C@@H]1CCc2ccccc21.CS(=O)(=O)O	105%	100%	91%	105%	103%	95%	98.2%	100%	91.2%	93.5%	86.4%	97.6%	93.6%	90.5%	95.2%	101%	103%	93.7%	85.6%	95.9%	92.9%	84.2%	89.5%	91.9%	94.9%	88.8%	101%	99.1%	97%	85.5%	83.6%	83.7%	83.5%
NC(=O)NO	85.4%	102%	100%	100%	94.3%	99.6%	102%	104%	72.4%	28.8%	2.02%	83.7%	103%	91.4%	90.8%	98.7%	98.5%	91.2%	90.9%	77.1%	43.6%	0.136%	88.4%	88.3%	87.7%	91.4%	92.2%	96%	94.1%	87.2%	65.2%	22.9%	2.61%
NC(=O)OCC(COC(N)=O)c1ccccc1	–	–	–	–	–	–	–	–	–	–	–	118%	123%	120%	118%	126%	113%	136%	115%	116%	113%	108%	–	–	–	–	–	–	–	–	–	–	–
CCN1CCCC1CNC(=O)c1cc([S+](N)(=O)[O-])ccc1OC (centres undefined)	111%	115%	119%	108%	125%	121%	116%	118%	113%	120%	109%	–	–	–	–	–	–	–	–	–	–	–	107%	117%	121%	117%	126%	117%	124%	126%	124%	128%	117%
